Measured values from patent US20250387359A1, “COMPOUNDS AND METHODS FOR THE TREATMENT OF PARASITIC INFECTIONS” (THE BOARD OF TRUSTEES OF THE UNIVERSITY OF ILLINOIS, priority 2019, published 2025).
Read-outs that look alike come from different tables or passages of the source.

Key:
[1] = target: recombinant CpLDH protein (Cryptosporidium parvum, UniProt Q9GT92, F198L/K295E/R251K); experiment: biochemical; type: biochemical; settings: 20 μM compound; 10 mM pyruvate, 1 mM NADH
Description: Biochemical assays. The coding sequence of CpLDH was cloned from cDNA prepared from the AUCP-1 isolate of C. parvum, and the His-tagged CpLDH recombinant protein expressed in Escherichia coli, and purified in native form essentially as previously described (Int. J. Parasitol. 2017; 47(13), 867-874). Briefly, cDNA was prepared from total RNA extracted from the AUCP-1 isolate of C. parvum, and the coding sequencing of CpLDH (Genebank accession number AF274310.1) was PCR-amplified from the cDNA using a primer pair with a XhoI restriction site and a BamHI site. The PCR amplicon was cloned at the XhoI/BamHI site of the pET15b expression vector in-frame with the hexahistidine (His-tag) at the N-terminal and sequenced to confirm identity. The recombinant expression vector was transformed into protein expression E. coli BL21-CodonPlus-DE3-RIL (Stratagene). Transformed E. coli was cultured at 37° C. in Luria broth medium (supplemented with 100 μg/ml ampicillin and 34 μg/ml chloramphenicol) to an A600 of 0.8 followed by addition of 1 mM isopropyl-β-d-thiogalactopyranoside to induce protein expression. The expression E. coli was harvested and lysed under native conditions by sonicating in lysis buffer (50 mM NaH2PO4, 300 mM NaCl, 10 mM Imidazole, pH 8.0) containing a 1× EDTA-free protease inhibitor cocktail, 600 units benzonase and 30 kU lysozyme (EMD Millipore). The lysate was clarified by centrifugation and the His-tagged recombinant protein purified under native conditions by nickel-affinity chromatography according to the manufacturer's instructions (Novagen). The wash buffer used contained 50 mM NaH2PO4, 300 mM NaCl and 20 mM Imidazole, pH 8.0, while the elution buffer was composed of 50 mM NaH2PO4, 300 mM NaCl, 250 mM Imidazole, pH 8.0. The eluate was dialyzed using a buffer containing 5 mM Hepes-KOH (pH 7.8) and 0.5 mM DTT. The purity of the recombinant protein was determined by SDS/PAGE, and the concentration measured using a Qubit 3.0 fluorometer (Life technologies). […] On the other hand, the catalytic activity of CpLDH recombinant protein for the oxidation of lactate to pyruvate was determined by measuring the change in optical density of a 100 μl reaction mixture containing 100 mM lactate, 1 mM NAD^+, 100 mM Tris, pH 9.2, with varying concentrations of CpLDH recombinant protein at 25° C. […] In all assays, reaction mixtures without recombinant CpLDH protein were included as negative controls. All assays were performed in triplicate and repeated at least thrice. The change in optical density was measured every 15 seconds for a total of 2 minutes using a Spectra Max 384 Plus plate reader (Molecular Devices) at a wavelength of 340 nm.
Screening compounds for inhibitory activity against CpLDH. The chemical compounds were obtained from the National Cancer Institute/Developmental Therapeutics Program Open Chemical Repository. They consisted of a diverse set of compounds (n=27) reported previously (Int J Parasitol Drugs Drug Resist. 2016; 6(1), 44-53), and a Mechanistic Set IV compounds (n=800). The compounds were reconstituted in dimethyl sulfoxide (DMSO) as stock solutions. Just before use, aliquots of the stock solutions were diluted in sterile distilled water to generate working solutions, such that the final amount of DMSO added to the reaction mixtures was less than 1% (V/V). The compounds were tested for their inhibitory effect against the enzymatic activity of recombinant His-tagged CpLDH for catalyzing the reduction of pyruvate to lactate. […] Control reactions without recombinant CpLDH protein were included. Reactions were performed in triplicate and repeated at least thrice. The change in optical density was measured every 15 seconds for a total of 2 minutes using a Spectra Max 384 Plus plate reader (Molecular Devices) at a wavelength of 340 nm.

[2] = test system: HCT-8 cells; experiment: Compound cytotoxicity assay (WST-1) in HCT-8 cells; type: cell-based, human
Description: Compound cytotoxicity assay. […] A colorimetric assay using the cell proliferation reagent WST-1 (Roche, USA) for the quantification of cell viability was performed. […] When the cells were confluent, the old medium was replaced with fresh medium with or without varying concentrations of chemical compound. After 24 h of culture, 10 μl of the cell proliferation reagent WST-1, (for quantification of cell viability) was added to each well, mixed and the plates incubated for 1 h at 37 C with 5% CO2 in the dark. […] Molecular Devices, USA).

[3] = HCT-8 cells, 24 h, WST-1, read-out: CYTOTOXICITY IC50

Chain of recombinant CpLDH protein (Q9GT92 whole entry F198L/K295E/R251K): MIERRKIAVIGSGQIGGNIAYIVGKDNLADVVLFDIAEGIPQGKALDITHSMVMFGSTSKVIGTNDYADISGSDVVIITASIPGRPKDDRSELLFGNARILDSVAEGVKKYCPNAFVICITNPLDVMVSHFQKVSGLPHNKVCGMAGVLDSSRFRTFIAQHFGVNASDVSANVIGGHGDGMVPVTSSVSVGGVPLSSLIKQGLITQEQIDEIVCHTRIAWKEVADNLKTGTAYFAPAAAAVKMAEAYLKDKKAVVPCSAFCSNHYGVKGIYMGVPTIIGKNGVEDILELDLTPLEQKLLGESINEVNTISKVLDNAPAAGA

Question: With `O=[N+]([O-])c1cccc2c(N=Nc3ccc4ccccc4c3O)c(O)cc(S(=O)(=O)O)c12.[Na+]` [NSC85561] as the molecule, how does the “effect on catalytic activity of recombinant CpLDH” value (shortened to “effect on catalytic activity”) [1] read?
Answer: significant (P<0.05) inhibitory effect

Question: What about the IC50 [2] of the same molecule?
Answer: 103 µM

Question: With `CC(O)CCC(=O)c1ccoc1` (centres unmarked) [NSC349438] as the molecule, how does the “effect on catalytic activity” value [1] read?
Answer: significant (P<0.05) inhibitory effect

Question: What about the IC50 [2] of the same molecule?
Answer: 93.9 µM

Question: `O=S(=O)([O-])c1cc(N=Nc2cc(S(=O)(=O)[O-])c3ccccc3c2O)ccc1/C=C/c1ccc(N=Nc2cc(S(=O)(=O)[O-])c3ccccc3c2O)cc1S(=O)(=O)[O-].[Na+].[Na+].[Na+].[Na+]` [NSC34931] was tested. Which “effect on catalytic activity” value [1] did it give?
Answer: significant (P<0.05) inhibitory effect

Question: And the IC50 [2]?
Answer: 71.1 µM

Question: How did the “effect on catalytic activity” value [1] turn out when `O=S(=O)(O)c1cc(N=Nc2cc(S(=O)(=O)O)c3cccnc3c2O)ccc1/C=C/c1ccc(N=Nc2cc(S(=O)(=O)O)c3cccnc3c2O)cc1S(=O)(=O)O` [NSC638352] was run?
Answer: significant (P<0.05) inhibitory effect

Question: And the IC50 [2]?
Answer: 116 µM

Question: For `O=S(=O)(O)c1cc(N=[N+]([O-])c2cc(S(=O)(=O)O)c3ccccc3c2)cc2ccccc12` [NSC37031], which “effect on catalytic activity” value [1] is on record?
Answer: significantly (P<0.05) inhibited

Question: And the IC50 [2]?
Answer: 333 µM

Question: How did the IC50 [2] turn out when `CCOC(=O)Cc1c(C)c2cc(C(=O)c3ccccc3)c(O)cc2oc1=O` [NSC115538] was run?
Answer: 158 µM

Question: Which “effect on catalytic activity” value [1] does the source give for `O=C(O)[C@@H]1[C@H](C(=O)O)[C@]2(Cl)C(Cl)=C(Cl)[C@@]1(Cl)C2(Cl)Cl` [NSC22225] here?
Answer: significantly (P<0.05) inhibited

Question: What about the IC50 [2] of the same molecule?
Answer: 96.8 µM

Question: With `CC1=C(CCC(=O)O)c2cc3nc(cc4[nH]c(cc4C)cc4[nH]c(cc1n2)cc4C)C(C)=C3CCC(=O)O` [NSC18298] as the molecule, how does the “effect on catalytic activity” value [1] read?
Answer: significant (P<0.05) inhibitory effect

Question: What about the IC50 [2] of the same molecule?
Answer: 81.9 µM

Question: `COc1ccc(/C=C/C(=O)Oc2cc(O)cc(O)c2)cc1` [NSC175296] was tested. Which IC50 [2] did it give?
Answer: 156 µM

Question: With `O=C([CH-]C(=O)C(F)(F)F)c1ccccc1.O=C([CH-]C(=O)C(F)(F)F)c1ccccc1.O=C([CH-]C(=O)C(F)(F)F)c1ccccc1.O=C([CH-]C(=O)C(F)(F)F)c1ccccc1.[Eu+3].c1ccncc1` [NSC253995] as the molecule, how does the “effect on catalytic activity” value [1] read?
Answer: significant (P<0.05) inhibitory effect

Question: What about the IC50 [2] of the same molecule?
Answer: 83 µM

Question: `Cc1cc(N(CCCl)CCCl)ccc1/C=N/NC(=O)Cc1cc(=O)oc2cc(O)ccc12` [NSC79688] was tested. Which “effect on catalytic activity” value [1] did it give?
Answer: significant (P<0.05) inhibitory effect

Question: And the IC50 [2, 3]?
Answer: 145 µM

Question: What does the source list for `Cc1cc2c(C(C)C)c(O)c(O)c(C=O)c2c(O)c1-c1c(C)cc2c(C(C)C)c(O)c(O)c(C=O)c2c1O` [NSC56817]?
Answer: effect on catalytic activity of recombinant CpLDH [1]: significant (P<0.05) inhibitory effect; IC50 [2, 3]: 64.2 µM

Question: What does the source list for `COC(=O)C1=C(C(=O)OC)SC2(S1)C(C(=O)OC)=C(C(=O)OC)Sc1c2ssc1=O` [NSC686349]?
Answer: effect on catalytic activity of recombinant CpLDH [1]: significant (P<0.05) inhibitory effect; IC50 [2]: 283 µM

Question: How did the “effect on catalytic activity” value [1] turn out when `O=Cc1cc([N+](=O)[O-])no1` [NSC626433] was run?
Answer: significant (P<0.05) inhibitory effect

Question: What about the IC50 [2] of the same molecule?
Answer: 265 µM

Question: Which “effect on catalytic activity” value [1] does the source give for `Cc1cc2c(c3oc(C4(C)OC4C4OC4C)cc(=O)c13)C(=O)c1c(O)c(C3CC(C)(N(C)C)C(O)C(C)O3)cc(C3CC(N(C)C)C(O)C(C)O3)c1C2=O` (centres unmarked) [NSC70929] here?
Answer: significant (P<0.05) inhibitory effect

Question: And the IC50 [2]?
Answer: 181 µM

Question: `O=[N+]([O-])c1ccc2c(N=Nc3c(O)ccc4ccccc34)c(O)cc(S(=O)(=O)[O-])c2c1.[Na+]` [NSC73413] was tested. Which “effect on catalytic activity” value [1] did it give?
Answer: significant (P<0.05) inhibitory effect

Question: What about the IC50 [2] of the same molecule?
Answer: 220 µM

Question: How did the IC50 [2] turn out when `O=C1/C(=C/c2ccccc2)CN(C(=O)/C=C/c2ccccc2)C/C1=C\c1ccccc1` [NSC638634] was run?
Answer: 157 µM

Question: `Cc1ccc2c(sc(-c3ccc4c(c3)sc(-c3ccc(N(C)C)cc3)[n+]4C)[n+]2C)c1S(=O)(=O)[O-].[Cl-]` [NSC71948] was tested. Which “effect on catalytic activity” value [1] did it give?
Answer: significant (P<0.05) inhibitory effect

Question: And the IC50 [2]?
Answer: 106 µM

Question: With `O=C(CC(=O)C(F)(F)F)c1csc2ccccc12` [NSC80396] as the molecule, how does the IC50 [2] read?
Answer: 91.9 µM

Question: How did the “effect on catalytic activity” value [1] turn out when `COc1ccc(CCN(C)CCCC(C#N)(c2ccc(OC)c(OC)c2)C(C)C)cc1OC.Cl` (centres unmarked) [NSC657799] was run?
Answer: significant (P<0.05) inhibitory effect
